Data taken from BindingDB's records for PubMed 35261239 (Bristol-Myers Squibb Company, 2022).

Target: TGF-beta-activated kinase 1 (MAP3K7)
Assay: Inhibition of TAK (unknown origin)

Row | IC50 | Compound
1 | 120 nM | COC(=O)Nc1cc(-c2cnc(OC[C@@](C)(N)CC(C)C)c(Cl)c2)ccn1
2 | 260 nM | COC(=O)Nc1cc(-c2cnc(OC[C@@](C)(N)CC(C)C)c(C#N)c2)ccn1
